Measurements from patent publication US12588689B2, “Feed additive composition containing erythritol” (EASY BIO, INC, priority 2020, dated 2026).
Marks after values point to notes of the source that are not given here.

Tested on: broiler chickens (Ross 308)
Experiment: Broiler chicken specification test, composition containing erythritol (noise and high temperature stress)
Type: in vivo
Source text: To investigate the influence of composition containing erythritol on high temperature stress reduction in summer season, 1,280 broiler chickens (Ross 308; male and female chickens) with average weight of 44.0 g and 1 day old were divided into eight treatment groups with 10 repetitions, and then, 16 chickens were arbitrarily located in total 80 fences, thereby performing breeding tests. The mixing rates represent weight ratios, and additives by treatment group are post-formulated in a farm. The erythritol (99%) used in the formulation was purchased at Vision Pharmalab Co., Ltd., and the beta-glucan was used with Biolife (ENT Co., Ltd., 40 to 50% beta-glucan content) used in the fourth embodiment of the present invention. • Control group (CON): Formulated feed • E: Formulated feed+0.02% erythritol • B: Formulated feed+0.02% beta-glucan • L: Formulated feed+0.02% lipidol • E+B: Formulated feed+0.02% erythritol+0.02% beta-glucan • E+L: Formulated feed+0.02% erythritol+0.02% lipidol • B+L: Formulated feed+0.02% beta-glucan+0.02% lipidol • E+B+L: Formulated feed+0.02% erythritol+0.02% beta-glucan+0.02% lipidol
The feed and water were sufficiently supplied and freely fed. So as to cause stress, 80 to 100 dB noise was produced two times per a day for ten minutes, and to cause high temperature stress, Temperature-Humidity Index (THI) as shown in FIG. 4 was kept.
The weights and feed intake were measured on week 1, week 3, and week 5 to calculate weight gain per day, feed intake per day, and feed conversion ratios (FCR), and the calculated results are listed in Table 6, together with mortality rates.

OC[C@@H](O)[C@@H](O)CO [E, erythritol]
Feed conversion ratio (Step 1 (1~7 days of age)): 1.36 | Feed intake (Step 1 (1~7 days of age)): 19.4 g/day | Mortality rate (Step 1 (1~7 days of age)): 0.0% | Weight gain (Step 1 (1~7 days of age)): 14.3 g/day | Weight (Step 1 (1~7 days of age), 0.02% of each additive in formulated feed): 144.0 g | Feed conversion ratio (Step 2 (8~21 days of age)): 1.74^a | Feed intake (Step 2 (8~21 days of age)): 69.3 g/day | Mortality rate (Step 2 (8~21 days of age)): 1.3% | Weight (Step 2 (8~21 days of age)): 705.4^e g | Weight gain (Step 2 (8~21 days of age)): 40.1^d g/day | Feed conversion ratio (Step 3 (22~35 days of age)): 1.88 | Feed intake (Step 3 (22~35 days of age)): 236.9 g/day | Mortality rate (Step 3 (22~35 days of age)): 3.8% | Weight (Step 3 (22~35 days of age)): 1592.3^e g | Weight gain (Step 3 (22~35 days of age)): 126.7^c g/day | Feed conversion ratio (Total (1~35 days of age)): 1.79^a | Feed intake (Total (1~35 days of age)): 98.6^bc g/day | Survival rate (Total (1~35 days of age)): 95.0% | Weight gain (Total (1~35 days of age)): 55.3^e g/day | weight gain, feed intake and feed conversion ratios compared with the control group (entire breeding period, result in words): no significant difference
